Bases are written 5' to 3'; sugars and linkages follow in the same order, as letters with counts (s phosphorothioate, o phosphodiester; PS: all linkages phosphorothioate). The collection does not say whether C is 5-methylated. l = locked nucleic acid (LNA); d = 2'-deoxy (DNA)
molecular target: Tau; experiment: rat primary cortical neurons, FLIPR, 25 uM ASO

Sequence | calcium oscillation score
ATAAATTTGAACCCCT (sugars l3 d9 l4, PS) | 49.7 % of control
TTATTTACACTGTCCTT (sugars l3 d10 l4, PS) | 54.1 % of control
CACCTTTTCATGTTAAA (sugars l4 d9 l4, PS) | 97.5 % of control
ACCACTGGCGACTTGTACAC (sugars l3 d14 l3, PS) | 5.18 % of control
ACGTTGCTAAGATCCA (sugars l3 d10 l3, PS) | 18.1 % of control
TAATTATTAAATCTTCTCTT (sugars l4 d12 l4, PS) | 60.1 % of control
TCTCTAATTGTCCAATA (sugars l4 d9 l4, PS) | 69 % of control
CTTTTCTTAAAGTTCAC (sugars l4 d9 l4, PS) | 82.2 % of control
AGGCACAAGTCCTTA (sugars l3 d9 l3, PS) | 107 % of control
ACTCAACATTACCCTTAAAT (sugars l4 d14 l2, PS) | 71.5 % of control
TAATCCTGTGCTTCA (sugars l3 d9 l3, PS) | 86.7 % of control
TCTTTATTAACACTCCA (sugars l4 d10 l3, PS) | 72.6 % of control
GCGACTTGTACACGATCTCC (sugars l3 d14 l3, PS) | 7.77 % of control
CCATTATCTCACTGCTT (sugars l3 d12 l2, PS) | 29.3 % of control
CCATTTTCCATATAATT (sugars l4 d9 l4, PS) | 76.5 % of control
TTATTTCCAAATTCACTTTT (sugars lllddldddddddddlldll, PS) | 114 % of control
TCCCAGCGTGATCTTCCATC (sugars ldlllddddddddddlldll, PS) | 74.5 % of control
TTAGACCACATTTCCAT (sugars l3 d11 l3, PS) | 96 % of control
CCGTGGTCTGTCTT (sugars l3 d8 l3, PS) | 20.9 % of control
TTCACACAACAAACTATTAT (sugars l4 d12 l4, PS) | 70.7 % of control
TAGCCCTAAAGTCCCAGGTC (sugars l3 d14 l3, PS) | 54 % of control
TGTTGCCTAATGAGCCACAC (sugars l3 d14 l3, PS) | 54.2 % of control

Sequence | calcium oscillation score
TTTGAGTTGAGGGACC (sugars l3 d10 l3, PS) | 0 % of control
TCCACCCTTACACATAG (sugars l3 d12 l2, PS) | 40.4 % of control
CATCGCTTCCAGTCCC (sugars l3 d10 l3, PS) | 39.1 % of control
GTTTGTAGACTATTT (sugars l3 d9 l3, PS) | 0 % of control
CCATTTTCCATATAATTT (sugars l4 d10 l4, PS) | 70.7 % of control
AGACCACATTTCCATCCC (sugars l1 d15 l2, PS) | 71.6 % of control
GGCATGATTGTGGGC (sugars l3 d9 l3, PS) | 5.22 % of control
ACCTGGCCACCTCCTG (sugars l3 d10 l3, PS) | 28.6 % of control
CCAGATTCCCCAACTCA (sugars l2 d12 l3, PS) | 76.7 % of control
CCCATCTTAATTCATTTAAT (sugars l2 d14 l4, PS) | 90.1 % of control
GTCCCGTCTTTGCTTT (sugars l3 d10 l3, PS) | 31.3 % of control
ATGATGGATGTTGCCT (sugars l3 d10 l3, PS) | 0 % of control
AGCTTTGAGTTGAGGG (sugars l3 d10 l3, PS) | 0 % of control
CTGATCACAAACCCTGCTTG (sugars l3 d14 l3, PS) | 20.3 % of control
CATCTTCCTTTAGTTTT (sugars l4 d10 l3, PS) | 50.9 % of control
CAGCACACAGGCAGCCACTG (sugars l3 d14 l3, PS) | 23.8 % of control
AGAAATAAGTGGTAGT (sugars l2 d12 l2, PS) | 86.9 % of control
CATTGGAACTGAGCAC (sugars l3 d10 l3, PS) | 8.33 % of control
ACCACCTCATTAAGATC (sugars l4 d11 l2, PS) | 58.3 % of control
AGTTTGTGCAAGGTC (sugars l3 d9 l3, PS) | 0 % of control
AACTGGTTAGCCCTAA (sugars l3 d10 l3, PS) | 31.3 % of control
CTACAAACCAGTTACC (sugars l3 d9 l4, PS) | 107 % of control

Sequence | calcium oscillation score
CACCACTTTAATCTGCCT (sugars l2 d14 l2, PS) | 41.1 % of control
TCACAACCCAAGATTCCC (sugars l2 d14 l2, PS) | 69.5 % of control
TCTACATTTTTGTCTCA (sugars l3 d11 l3, PS) | 47.1 % of control
AACCCCATAGACATAA (sugars l4 d8 l4, PS) | 78.6 % of control
GTGATGCAGGAGTT (sugars l3 d8 l3, PS) | 64.8 % of control
TCTTAATTCATTTAATTCTC (sugars l4 d12 l4, PS) | 87.1 % of control
TTTGAAGTCCCGAGCCAAAG (sugars l3 d14 l3, PS) | 0 % of control
AGCTACTCACAACCCA (sugars l2 d11 l3, PS) | 65.6 % of control
TTCACCCCAAGACACAA (sugars l3 d11 l3, PS) | 59 % of control
TATTTACACTGTCCTTT (sugars l4 d9 l4, PS) | 52.1 % of control
ACCAATTATCTTTAAATTCT (sugars l4 d13 l3, PS) | 77 % of control
ACTTTATTTCCAAATTCACT (sugars l5 d10 l5, PS) | 98 % of control
AACAAACAAAAATCCCCTA (sugars l4 d11 l4, PS) | 85.7 % of control
GAGCCACACTTGGAGGTCAC (sugars l3 d14 l3, PS) | 0 % of control
TCCTTGAAGTCAAGCTTCTC (sugars l3 d14 l3, PS) | 49.8 % of control
ATTTTACTACTCTCTTTTC (sugars l4 d11 l4, PS) | 70.6 % of control
TGATATTGTCCAGGGACCCA (sugars l3 d14 l3, PS) | 0 % of control
CTTCTAGTTATACAGTTGGC (sugars l3 d14 l3, PS) | 40.5 % of control
ATATTGAACTCACCCA (sugars l4 d9 l3, PS) | 67.3 % of control
ACCCCACATTTGCAAAC (sugars l3 d12 l2, PS) | 63.5 % of control
TATCATTTTCTTTTTCAAAA (sugars l4 d12 l4, PS) | 37.3 % of control
AACTCAAATCAATTCTCATT (sugars l4 d12 l4, PS) | 73.2 % of control

Sequence | calcium oscillation score
TAGGAGAGGAAGGTGG (sugars l3 d10 l3, PS) | 3.7 % of control
TTATTTCCAAATTCACTTTT (sugars l2 d2 l2 d10 l4, PS) | 123 % of control
CCTCACTTTACACATTAAAT (sugars l4 d14 l2, PS) | 64.1 % of control
CCCACAGCACTAAATTT (sugars l3 d11 l3, PS) | 83.5 % of control
TTACCATCCTATCTTCT (sugars l2 d11 l4, PS) | 72.7 % of control
TGCTTACACACCACACA (sugars l2 d12 l3, PS) | 80.5 % of control
CAAACCACTCTTATTCTTTA (sugars l4 d13 l3, PS) | 68.5 % of control
CTGTCACTATCACTTCA (sugars l2 d11 l4, PS) | 75.3 % of control
TTAGACTCCTTCTTTAGGCT (sugars l3 d14 l3, PS) | 26.2 % of control
CTCCCTTTAATGCCAGGCCC (sugars l3 d14 l3, PS) | 20.1 % of control
TTACCCTTAAATATGC (sugars l4 d8 l4, PS) | 73.3 % of control
CGATGCTGCCGGTGGA (sugars l3 d10 l3, PS) | 2.61 % of control
CAGGTATCCAGCCATATTTC (sugars l3 d14 l3, PS) | 27.5 % of control
TTGGGTGGAGTACGGACCAC (sugars l3 d14 l3, PS) | 0 % of control
TCATTCAGCCAATCAC (sugars l4 d9 l3, PS) | 52.4 % of control
CCAGCGTGATCTTC (sugars l3 d8 l3, PS) | 120 % of control
TCCCAGCGTGATCTTCCATC (sugars lldllddddddddddlldll, PS) | 106 % of control
ACTTTATTTCCAAATTCACTTTTAC (sugars ldllldddddddddddddddllddl, PS) | 17.7 % of control
AACTGGTTTGTAGACTATTT (sugars l3 d14 l3, PS) | 0 % of control
GCGAGTCTACCATGTC (sugars l3 d10 l3, PS) | 76 % of control
CCTCTTCCACTACAAGCT (sugars l2 d14 l2, PS) | 49.1 % of control
TTAGCCCTAAAGTCCC (sugars l3 d10 l3, PS) | 28.6 % of control

Sequence | calcium oscillation score
TTCCACATTTTACAGTA (sugars l3 d10 l4, PS) | 76.6 % of control
CTCATTTTTCTCAAGCTC (sugars l3 d12 l3, PS) | 44.8 % of control
AAAATATCCTTACCATCCTA (sugars l3 d14 l3, PS) | 75.5 % of control
AAACCATGATCTTAGG (sugars l3 d10 l3, PS) | 81.3 % of control
TCCTCTCCTTTAAGAAA (sugars l3 d12 l2, PS) | 79.1 % of control
ATTAACCAATTAACCGAACT (sugars l3 d14 l3, PS) | 45.2 % of control
CTACACCACTGTTCCATA (sugars l1 d15 l2, PS) | 62 % of control
GAGAACTGGTTAGCCC (sugars l3 d10 l3, PS) | 2.3 % of control
TAATTCATTTAATTCTCTTC (sugars l4 d12 l4, PS) | 60.1 % of control
TTATTTATTCTTTTTATTA (sugars l4 d11 l4, PS) | 45.2 % of control
CTCACCCCAAACAAGA (sugars l3 d10 l3, PS) | 65.6 % of control
CTCCCATCACTAGCACT (sugars l1 d14 l2, PS) | 38.3 % of control
ACTTATCTATCCATCTAT (sugars l4 d11 l3, PS) | 80.2 % of control
TCCTGGTTTATGATGG (sugars l3 d10 l3, PS) | 2.3 % of control
CCATTAATTTAGCCAA (sugars l3 d9 l4, PS) | 87.2 % of control
ACCTCCTGGTTTATGA (sugars l3 d10 l3, PS) | 32.2 % of control
TACACCATCCAAGTCAA (sugars l3 d10 l4, PS) | 97 % of control
GCTCTTCAAATCATTCA (sugars l4 d11 l2, PS) | 81.1 % of control
TGCACCCACTTTCCTAAT (sugars l4 d12 l2, PS) | 56.2 % of control
AACTCTAAGTAGACCCTGGC (sugars l3 d14 l3, PS) | 14.3 % of control

Reference: the OligoGym collection
